Data reported in patent EP2386565A2, “Compounds and methods to inhibit or augment an inflammatory response” (Cambridge Enterprise Ltd., priority 1999, dated 2000).
Values joined by “and” are separate entries in the source; they are usually repeats but may differ in a detail not shown here. Equal entries are not always repeated. Positions of bridges follow the written chain, without caps; N, C: chain ends. Non-standard residues stand in square brackets, D forms with d. Residues, ends and D or L forms follow the SMILES beside them.

Assays:
[1] = Acute and 7-day repeat dose toxicity study; type: in vivo, rat
Excerpt: That is, all animals remained clinically normal throughout.

[2] = Serum half-life of glucose conjugate after s.c. injection; type: in vivo, rats; conditions: unmodified peptide, comparison value
Protocol: To determine whether sugar conjugates of an agent of the invention had increased plasma half-lives, a glucose conjugate of CRD-Leu4Ile11Cys13 peptide 3(3-12)[MCP-1] was prepared and administered to rats. The conjugate was synthesized by mixing D-glucose (50 mM) and CRD-Leu4Ile11Cys13 peptide 3(3-12)[MCP-1] (1 mM) in phosphate buffered saline and incubating at room temperature for 16 hours. The reaction mixture was then subject to analytical HPLC which indicated a yield of about 30%. The material was then treated with cyanoborohydride to effect reduction of the schiffs base linkage and stabilize the glucosides for purification. The stabilized glucosides were then subjected to preparative HPLC and the mono- and di-substituted glucosides prepared separately. The monoglucoside was obtained at >90% purity in approximately 10% yield, and it is likely that the material is a mixture of Lys5-glucoside and Lys-7 glucoside.
The CRD-Leu4Ile11Cys13 peptide 3(3-12)[MCP-1] monoglucoside was injected into 3 rats (5 mg per rat via s.c. route in sterile PBS). Blood samples were withdrawn through an i.v. cannula at various time points, and CRD-Leu4Ile11Cys13 peptide 3(3-12)[MCP-1] glucoside was quantitated in the serum.

[3] = system: MCP-1 binding to heparin-coated agarose beads; assay: Competition with 125I-MCP-1 for heparin-coated agarose beads; conditions: 10^-11 to 10^-4 M
Excerpt: Chemokines bind to glycosaminoglycans on the cell surface, which may facilitate chemokine receptor binding and subsequent signaling. […] This was followed by a monophasic displacement curve at concentrations of approximately 10^-7 to 10^-5 M MCP-1.

[4] = system: T cell-dependent and T cell-independent antibody response; assay: Antibody response after immunization with sheep red blood cells; set-up: species or system mice; conditions: mouse, in vivo
α2-adrenoceptors = assay: Competition of 3H-RS-79948-197 binding to membranes; conditions: 100 µM highest concentration tested
Protocol: For α2-adrenoreceptor binding, membranes (A-213, RBI/Sigma)) are diluted into binding buffer (75 mM Tris pH 7.4, 12.5 mM MgCl2 and 2 mM EDTA). For example, 10 µl of membranes are diluted in 500 µl of binding buffer (i.e., 1:50 dilution), which is aliquoted into tubes. Cold competitor or test competitor is added, for example, 5 µl of 1 mM oxymetazoline (O-110, RBI/Sigma, 1 mM stock in MilliQ water). Radioligand is then added (^3H-RS-79948-197, TRK 1036, Amersham, 50 µCi in 250 µl, 2.1 µM at 95 Ci/mmol). For competition studies, 1 nM is used. A 100x stock (i.e., 100 nM) is made by diluting the commercial stock 1:20 in binding buffer, and 5 µl is added to every tube. Control tubes have radioligand but no membranes. The mixtures are vortexed, then spun very briefly. The mixtures are then incubated for 1 hour at 27°C in a water bath. The mixture is filtered through GF/C filters over a vacuum. Each filter is pre-soaked in polyethyleneimine (0.3% in water; add 1 ml of 10% stock (P-261; RBI/Sigma) to 33 ml of MilliQ water). The tubes are washed with 2-3 ml of wash buffer (50 mM Tris pH 7.4) and the wash filtered. The filters are then rinsed with 3 × 5 ml of wash buffer, air dried, placed in a scintillation vial and 4.5 ml of scintillant added. The activity on the filter is then determined.

[5] = system: ovalbumin-induced pulmonary inflammation, IgE, IL-4 and recall responses; assay: Ovalbumin-induced asthma / hypersensitivity model; type: in vivo, mice; conditions: Group 4: Ova on days 8, 15, 18, 21 & 35, treat BID 14 days, sacrifice day 35 (recent Ova challenge), 0 µg/ml Ova
[6] = system: MCP-1 induced human monocyte migration; assay: Migration of freshly prepared peripheral blood monocytes, MCP-1; type: cell-based
Protocol: Agents may also be screened in a chemotactic assay which employs human neutrophils, eosinophils, mast cells, basophils, platelets, lymphocytes or monocytes. For monocytes, 9 mls of fresh blood are transferred to a tube containing 1 ml of 3.8% sodium citrate, and left at room temperature for 15 minutes. Five mls of this anti-coagulated blood are carefully layered over 3.5 ml Polymorphprep® (Nycomed Pharma, Oslo), and centrifuged at 500 g for 35 minutes per the manufacturer's instructions. The top band at the sample/medium interface contains monocytes. The monocytes are carefully removed with a glass pipette, and reconstituted to the original volume (5 ml). The cells are washed with PBS plus 10% fetal calf serum, and centrifuged at 400 g for 10 minutes. The washing step is repeated three times before the cells are counted. Cells are resuspended at 1 × 10^7 cells/ml in RPMI-1640 + 10% fetal calf serum (FCS). The monocytes are cultured for two days at 37°C in a humidified atmosphere of 5% CO2-
On day 2, the cells are counted, spun down, and reconstituted to 1 × 10^7 cells/ml in Gey's balanced salt solution + 1 mg/ml bovine serum albumin (BSA). […]

| SMILES | acute toxicity (in words) ([1]; 1 or 10 mg (5-50 mg/kg) i.v.) | 7-day repeat dose toxicity (in words) ([1]; subcutaneous osmotic mini-pump, about 43 µg/hr for 7 days (7.2 mg)) | T1/2α [2] [min] | displacement of MCP-1 from heparin-coated agarose beads (in words) [3] | T cell-dependent antibody response (in words) [4] | ED50 for competition of RS79943 binding to α2-adrenoceptors (α2-adrenoceptors) [µM] | IL-4 Assays, pg/ml IL-4, individual mice m1-m4 [5] | Total IgM + IgG (1 week splenocyte cultures), individual mice m1-m4 ([5]; listed as CRD-Leu4Ile11Cys13 peptide 3(3-12)[MCP]) | % inhibition at 100 µM versus MCP-1 [6] |
| --- | --- | --- | --- | --- | --- | --- | --- | --- | --- |
| CC[C@@H](C)[C@H]1NC(=O)[C@@H](CCC(N)=O)NC(=O)[C@H](N)CSSC[C@H](C(N)=O)NC(=O)[C@@H](CC(C)C)NC(=O)[C@@H](CC(=O)O)NC(=O)[C@H]2CCCN2C(=O)[C@@H](CCCCN)NC(=O)[C@@H](CCC(N)=O)NC(=O)[C@@H](CCCCN)NC(=O)[C@@H](Cc2c[nH]c3ccccc23)NC1=O (H-[dC][dQ][dI][dW][dK][dQ][dK][dP][dD][dL][dC]-NH2; disulfide 1-11) | no clinically detectable changes | no dose dependent or clinically significant changes | 15 | did not result in displacement | prevented | >100 | 2.61 pg/mL and 1.11 pg/mL and 5.08 pg/mL and 2.88 pg/mL | 15.32 and 25.86 and 14.87 and 12.60 | – |
| CC[C@H](C)[C@H](NC(=O)[C@H](C)NC(=O)[C@H](CC(=O)O)NC(=O)[C@@H]1CCCN1C(=O)[C@H](CCC(N)=O)NC(=O)[C@H](C)N)C(=O)N[C@@H](CC(N)=O)C(=O)N[C@@H](C)C(=O)N1CCC[C@H]1C(=O)N[C@H](C(=O)N[C@H](C(=O)N[C@@H](CS)C(=O)N[C@@H](CS)C(=O)O)[C@@H](C)O)C(C)C [Peptide 1] (H-AQPDAINAPVTCC-OH; N-terminus and C-terminus assumed) | – | – | – | – | – | – | – | – | n.s. |
